Reference: US20130217913A1, “Antimalarial Drug Comprising Alaremycin or Derivative Thereof as Active Ingredient” (SBI Pharmaceuticals Co., Ltd., priority 2010, published 2013)

How the values were obtained:
human malaria parasites [1] = assay: [3H]-hypoxanthine incorporation (de novo nucleic acid synthesis) in infected human red blood cells, Example 2; assay type: cell-based; settings: for specific radioactivity incorporation, [^3H]-hypoxanthine: 25 hours, value at 0.1 μM set to 100%
Description: Human red blood cells infected at an infection rate of 2% with ring-stage human malaria parasites were cultured in RPMI1640 medium containing AlbuMAX-II at 37° C. and a hematocrit of 4%. 50 μL of a medium containing Alaremycin or any of the other compounds shown in Table 2 was mixed with 50 μL of the culture to the indicated concentrations, to which [^3H]-hypoxanthine was then added, followed by culture in a 96-well plate at 37° C. The repeat number was 2 for each concentration. After 25 hours, they were examined and the amount β-rays released from [^3H]-hypoxanthine incorporated into a nucleic acid with de novo nucleic acid synthesis was measured using a scintillation counter. The averages of the measured values were calculated, and the specific radioactivity incorporation was calculated by setting the measured value in the experiment for which each compound is contained at a final concentration of 0.1 μM, to 100%.

human malaria parasites [2] = assay: [14C]-isoleucine incorporation (de novo protein synthesis) in infected human red blood cells, Example 1; assay type: cell-based; settings: 25 hours, value at 0.01 μM set to 100%
Description: (§1) Human red blood cells infected at an infection rate of 2% with ring-stage human malaria parasites were cultured in RPMI1640 medium containing AlbuMAX-II (Invitrogen) at 37° C. and a hematocrit of 4%. 50 μL of the culture was mixed with 50 μL of a medium containing Alaremycin to the concentrations shown in Table 1, to which [^3H]-hypoxanthine and [^14C]-isoleucine isoleucine were then added, followed by culture in a 96-well plate at 37° C. The repeat number was 2 for each concentration. After 25 hours, they were examined and the amount of (3-rays released from [^3H]-hypoxanthine incorporated into a nucleic acid with de novo nucleic acid synthesis or from [^14C]-isoleucine incorporated into a protein with de novo protein synthesis was measured using a scintillation counter. The averages of the measured values were calculated, and the specific radioactivity incorporation was calculated by setting the measured value in the experiment for which Alaremycin was contained at a final concentration of 0.01 μM, to 100%. The results are shown in Table 1.

human malaria parasites [3] = assay: [3H]-hypoxanthine incorporation (de novo nucleic acid synthesis) in infected human red blood cells, Example 1; assay type: cell-based; settings: for Specific Radioactivity Incorporation (%) [^3H]-Hypoxanthine: 25 hours, value at 0.01 μM set to 100%
Description: as §1

[4] = target: porphobilinogen synthase (PBGS) (Pseudomonas aeruginosa, UniProt Q59643); settings: Non-patent Document 3; cited from earlier work
Chain of porphobilinogen synthase (PBGS) (Q59643 whole entry): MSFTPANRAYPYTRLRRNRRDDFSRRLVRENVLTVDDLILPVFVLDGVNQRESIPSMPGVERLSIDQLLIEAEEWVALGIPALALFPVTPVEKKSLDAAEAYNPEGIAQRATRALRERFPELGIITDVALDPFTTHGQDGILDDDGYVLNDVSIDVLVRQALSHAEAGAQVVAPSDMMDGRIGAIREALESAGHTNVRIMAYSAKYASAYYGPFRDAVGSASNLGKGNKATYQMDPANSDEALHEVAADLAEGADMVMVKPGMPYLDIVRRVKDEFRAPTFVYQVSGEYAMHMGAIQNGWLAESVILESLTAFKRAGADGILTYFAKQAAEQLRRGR

Escherichia coli = settings: Non-patent Documents 2, 3; cited from earlier work
Pseudomonas aeruginosa = settings: Non-patent Document 3; cited from earlier work

In the case of `O=C(O)CCC(=O)CCC(=O)CCC(=O)O` [4,7-Dioxosebacic acid, 4,7-dioxosebacic acid], the “specific radioactivity incorporation, [^3H]-hypoxanthine” value (human malaria parasites [1]; 0.1 μM) is reported as 100%, the “specific radioactivity incorporation, [^3H]-hypoxanthine” value (human malaria parasites [1]; 1 μM) is reported as 110.3% and the “specific radioactivity incorporation, [^3H]-hypoxanthine” value (human malaria parasites [1]; 5 μM) is reported as 106.9%. The “specific radioactivity incorporation, [^3H]-hypoxanthine” value (human malaria parasites [1]; 10 μM) was 103.4%, the “specific radioactivity incorporation, [^3H]-hypoxanthine” value (human malaria parasites [1]; 50 μM) was 108% and the “specific radioactivity incorporation, [^3H]-hypoxanthine” value (human malaria parasites [1]; 100 μM) was 102.1%. The “specific radioactivity incorporation, [^3H]-hypoxanthine” value (human malaria parasites [1]; 500 μM) was 106.8%, the “specific radioactivity incorporation, [^3H]-hypoxanthine” value (human malaria parasites [1]; 1000 μM) was 100.1% and the “specific radioactivity incorporation, [^3H]-hypoxanthine” value (human malaria parasites [1]; 5000 μM) was 100%. For the same compound, the “specific radioactivity incorporation, [^3H]-hypoxanthine” value (human malaria parasites [1]; 10000 μM) was 97.1%.
With `NCC(=O)CCC(=O)O` [5-Aminolevulinic acid, 5-aminolevulinic acid] the “specific radioactivity incorporation, [^3H]-hypoxanthine” value (human malaria parasites [1]; 0.1 μM) was 100%, the “specific radioactivity incorporation, [^3H]-hypoxanthine” value (human malaria parasites [1]; 1 μM) was 102.7% and the “specific radioactivity incorporation, [^3H]-hypoxanthine” value (human malaria parasites [1]; 5 μM) was 108.5%. For the same compound, the “specific radioactivity incorporation, [^3H]-hypoxanthine” value (human malaria parasites [1]; 10 μM) was 104.4%, the “specific radioactivity incorporation, [^3H]-hypoxanthine” value (human malaria parasites [1]; 50 μM) was 97.3% and the “specific radioactivity incorporation, [^3H]-hypoxanthine” value (human malaria parasites [1]; 100 μM) was 101.2%.
With `C=C(NC(C)=O)C(=O)CCC(=O)O` [Alaremycin, 5-acetamido-4-oxo-5-hexenoic acid] the “Specific Radioactivity Incorporation (%) [^14C]-Isoleucine” value (human malaria parasites [2]; 0.01 μM) was 100%, the “Specific Radioactivity Incorporation (%) [^14C]-Isoleucine” value (human malaria parasites [2]; 0.1 μM) was 93.3% and the “Specific Radioactivity Incorporation (%) [^14C]-Isoleucine” value (human malaria parasites [2]; 1 μM) was 88.8%. For the same compound, the “Specific Radioactivity Incorporation (%) [^14C]-Isoleucine” value (human malaria parasites [2]; 5 μM) was 84.7%, the “Specific Radioactivity Incorporation (%) [^14C]-Isoleucine” value (human malaria parasites [2]; 10 μM) was 64.8% and the “Specific Radioactivity Incorporation (%) [^14C]-Isoleucine” value (human malaria parasites [2]; 50 μM) was 3.6%. For the same compound, the “Specific Radioactivity Incorporation (%) [^14C]-Isoleucine” value (human malaria parasites [2]; 100 μM) was 2.1%, the “Specific Radioactivity Incorporation (%) [^14C]-Isoleucine” value (human malaria parasites [2]; 200 μM) was 1% and the “Specific Radioactivity Incorporation (%) [^3H]-Hypoxanthine” value (human malaria parasites [3]; 0.01 μM) was 100%. The “Specific Radioactivity Incorporation (%) [^3H]-Hypoxanthine” value (human malaria parasites [3]; 0.1 μM) was 100.4%, the “Specific Radioactivity Incorporation (%) [^3H]-Hypoxanthine” value (human malaria parasites [3]; 1 μM) was 92.8% and the “Specific Radioactivity Incorporation (%) [^3H]-Hypoxanthine” value (human malaria parasites [3]; 5 μM) was 84.8%. The “Specific Radioactivity Incorporation (%) [^3H]-Hypoxanthine” value (human malaria parasites [3]; 10 μM) was 66.8%, the “Specific Radioactivity Incorporation (%) [^3H]-Hypoxanthine” value (human malaria parasites [3]; 50 μM) was 2.8% and the “Specific Radioactivity Incorporation (%) [^3H]-Hypoxanthine” value (human malaria parasites [3]; 100 μM) was 1.5%. For the same compound, the “Specific Radioactivity Incorporation (%) [^3H]-Hypoxanthine” value (human malaria parasites [3]; 200 μM) was 1.1%, the inhibition at 15 µM (human malaria parasites [3]; Homo sapiens, Erythrocyte, 15 μM, rough statement for both [^3H]-hypoxanthine and [^14C]-isoleucine, read-out: inhibition of radioactivity incorporation) was roughly 50% and the inhibition at 50 µM (human malaria parasites [3]; Homo sapiens, Erythrocyte, 50 μM, rough statement for both [^3H]-hypoxanthine and [^14C]-isoleucine, read-out: inhibition of radioactivity incorporation) was no less than 95%. The “inhibition of nucleic acid metabolism and protein synthesis in human malaria parasites (in words)” value (human malaria parasites [3]; measured as in Example 1, both nucleic acid and protein synthesis) was “inhibited by Alaremycin in a concentration-dependent manner”, the “inhibition of porphobilinogen synthase (in words)” value [4] was “act as an inhibitor of porphobilinogen synthase (PBGS)” and the “antibacterial activity (in words)” value (Escherichia coli) was “has antibacterial activities”. The “antibacterial activity (in words)” value (Pseudomonas aeruginosa) was “has antibacterial activities”, the “specific radioactivity incorporation, [^3H]-hypoxanthine” value (human malaria parasites [1]; 0.1 μM) was 100% and the “specific radioactivity incorporation, [^3H]-hypoxanthine” value (human malaria parasites [1]; 1 μM) was 100.5%. For the same compound, the “specific radioactivity incorporation, [^3H]-hypoxanthine” value (human malaria parasites [1]; 5 μM) was 90.7%, the “specific radioactivity incorporation, [^3H]-hypoxanthine” value (human malaria parasites [1]; 10 μM) was 83.8% and the “specific radioactivity incorporation, [^3H]-hypoxanthine” value (human malaria parasites [1]; 50 μM) was 2.8%. For the same compound, the “specific radioactivity incorporation, [^3H]-hypoxanthine” value (human malaria parasites [1]; 100 μM) was 1.6% and the “inhibition of nucleic acid metabolism in human malaria parasites (in words)” value (human malaria parasites [1]; compared to succinylacetone and 4,7-dioxosebacic acid) was “sufficiently inhibit nucleic acid metabolism in human malaria parasites in a significantly low concentration”.
In the case of `CC(=O)CC(=O)CCC(=O)O` [Succinylacetone, 4,6-dioxoheptanoic acid], the “specific radioactivity incorporation, [^3H]-hypoxanthine” value (human malaria parasites [1]; 0.1 μM) is reported as 100%, the “specific radioactivity incorporation, [^3H]-hypoxanthine” value (human malaria parasites [1]; 1 μM) is reported as 94.4% and the “specific radioactivity incorporation, [^3H]-hypoxanthine” value (human malaria parasites [1]; 5 μM) is reported as 94.3%. For the same compound, the “specific radioactivity incorporation, [^3H]-hypoxanthine” value (human malaria parasites [1]; 10 μM) was 94.7%, the “specific radioactivity incorporation, [^3H]-hypoxanthine” value (human malaria parasites [1]; 50 μM) was 99.8% and the “specific radioactivity incorporation, [^3H]-hypoxanthine” value (human malaria parasites [1]; 100 μM) was 90.9%. The “specific radioactivity incorporation, [^3H]-hypoxanthine” value (human malaria parasites [1]; 500 μM) was 94.4%, the “specific radioactivity incorporation, [^3H]-hypoxanthine” value (human malaria parasites [1]; 1000 μM) was 88.6% and the “specific radioactivity incorporation, [^3H]-hypoxanthine” value (human malaria parasites [1]; 5000 μM) was 58.8%. For the same compound, the “specific radioactivity incorporation, [^3H]-hypoxanthine” value (human malaria parasites [1]; 10000 μM) was 21.4%.
